Measured values as given in the supplement of paper PMC10307832.

Legend:
Assay in all cases: relative viability (nuclei count vs DMSO), 5 days (fraction); higher = more cells survive
[1] = compound: CC1(C)CNc2cc(NC(=O)c3cccnc3NCc3ccncc3)ccc21 [Motesanib] + O=C(c1cc(Cc2n[nH]c(=O)c3ccccc23)ccc1F)N1CCN(C(=O)C2CC2)CC1 [Olaparib] (partner 8 µM)
In short: (§1)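 Lung cancer cell lines, seeded in 1536-well plates, were treated the following day by pin tool with a single drug or with five library-drug doses (not always all listed) in √10 steps on top of a fixed anchor-drug dose. Cells were fixed and nuclei stained in one step after 5 days, and nuclei were counted. Relative viability is the nuclei count for treated wells divided by that for vehicle wells, reported as medians of duplicate plates.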

[2] = compound: C[C@@]1(C(=O)Nc2ccc(F)nc2)CCCN1c1nc(Nc2cc(C3CC3)n[nH]2)c2cccn2n1 + O=C(CCCCCCC(=O)Nc1ccccc1)NO [Vorinostat] (partner 1 µM)
In short: as §1

[3] = compound: CC1(C)CNc2cc(NC(=O)c3cccnc3NCc3ccncc3)ccc21 [Motesanib] + Nc1nc2[nH]cc(CCc3ccc(C(=O)N[C@@H](CCC(=O)O)C(=O)O)cc3)c2c(=O)[nH]1 [Pemetrexed] (partner 0.2 µM)
In short: as §1

[4] = compound: C[C@@]1(C(=O)Nc2ccc(F)nc2)CCCN1c1nc(Nc2cc(C3CC3)n[nH]2)c2cccn2n1 + CS(=O)(=O)N1CCN(Cc2cc3nc(-c4cccc5[nH]ncc45)nc(N4CCOCC4)c3s2)CC1 [Pictilisib] (partner 1 µM)
In short: as §1

Cell Line | relative viability ([1]; first compound 0.01 µM) | relative viability ([1]; first compound 0.03162 µM) | relative viability ([1]; first compound 0.1 µM) | relative viability ([1]; first compound 0.3162 µM) | relative viability ([1]; first compound 1 µM) | relative viability ([2]; first compound 0.04 µM) | relative viability ([2]; first compound 0.1265 µM) | relative viability ([2]; first compound 0.4 µM) | relative viability ([2]; first compound 1.265 µM) | relative viability ([3]; first compound 0.01 µM) | relative viability ([3]; first compound 0.03162 µM) | relative viability ([3]; first compound 0.1 µM) | relative viability ([3]; first compound 0.3162 µM) | relative viability ([3]; first compound 1 µM) | relative viability ([4]; first compound 0.04 µM) | relative viability ([4]; first compound 0.1265 µM) | relative viability ([4]; first compound 0.4 µM) | relative viability ([4]; first compound 1.265 µM)
LXF-289 | 1.04 | 0.992 | 0.926 | 1.21 | 1.12 | 0.815 | 0.701 | 0.73 | 0.792 | 0.704 | 0.845 | 0.898 | 0.896 | 0.57 | 0.739 | 0.657 | 0.567 | 0.628
NCI-H23 | 0.354 | 0.299 | 0.308 | 0.281 | 0.348 | 0.473 | 0.332 | 0.27 | 0.178 | 0.645 | 0.624 | 0.518 | 0.447 | 0.545 | 0.583 | 0.371 | 0.396 | 0.342
NCI-H322M | 0.82 | 0.762 | 0.886 | 0.803 | 0.812 | 0.794 | 0.688 | 0.638 | 0.64 | 0.681 | 0.627 | 0.556 | 0.691 | 0.605 | 0.479 | 0.376 | 0.371 | 0.507
NCI-H522 | 0.691 | 0.674 | 0.594 | 0.677 | 0.876 | 0.864 | 0.809 | 0.69 | 0.875 | 1.01 | 1.05 | 0.955 | 0.844 | 1.03 |  |  |  | 
NCI-H727 | 0.937 | 0.614 | 0.761 | 0.779 | 0.6 | 1.3 | 0.774 | 0.774 | 0.474 |  |  |  |  |  | 0.328 | 0.179 | 0.306 | 0.155
NCI-H1299 | 0.938 | 0.973 | 1.03 | 1.02 | 0.898 |  |  |  |  |  |  |  |  |  | 0.752 | 0.844 | 0.669 | 0.286
NCI-H1563 |  |  |  |  |  |  |  |  |  | 0.679 | 0.82 | 0.871 | 0.644 | 0.794 | 0.625 | 0.614 | 0.596 | 0.598
NCI-H1648 | 0.563 |  |  | 1.1 | 1.06 | 0.363 | 0.332 | 0.221 | 0.443 | 0.707 |  |  | 0.674 | 0.547 |  |  |  | 
NCI-H1703 | 0.442 | 0.305 | 0.318 | 0.223 | 0.232 |  |  |  |  |  |  |  |  |  | 0.25 | 0.224 | 0.227 | 0.213
NCI-H1792 | 0.544 | 0.444 | 0.491 | 0.444 | 0.486 |  |  |  |  | 0.778 | 0.859 | 0.791 | 0.785 | 0.711 | 0.257 | 0.266 | 0.201 | 0.318
NCI-H2342 | 0.472 | 0.569 | 0.403 | 0.469 | 0.463 | 0.803 | 0.708 | 0.696 | 0.582 | 0.8 | 0.748 | 0.795 | 0.794 | 0.912 |  |  |  | 
SW 900 | 0.904 | 0.677 | 0.811 | 0.9 | 0.917 | 0.557 | 0.426 | 0.432 | 0.468 | 0.459 | 0.416 | 0.356 | 0.301 | 0.303 |  |  |  | 
